For series [1], the system named is MDA-MB-231. Nature of the series: Antiproliferative activity against human MDA-MB-231 cells assessed as reduction in cell viability measured after 48 hrs by MTT assay. Format: functional, cell-based. The note with it: MDA-MB-231, 48 h. (In general: Tetrazolium assays rely on reduction of a dye to a coloured formazan, in cell work by metabolically active cells.)

A further series has as its system C-33-A. Kind of series: Antiproliferative activity against human C-33-A cells assessed as reduction in cell viability measured after 48 hrs by MTT assay. Format: functional, cell-based.
For a further series, the system named is T47D. Nature of the series: Antiproliferative activity against human T47D cells assessed as reduction in cell viability measured after 48 hrs by MTT assay. Format: functional, cell-based.
The test system of a further series is MDA-MB-361. Nature of the series: Antiproliferative activity against human MDA-MB-361 cells assessed as reduction in cell viability measured after 48 hrs by MTT assay. The class given is functional, cell-based. To be noted: MDA-MB-361, 48 h.
The test system of series [2] is MCF7. Kind of series: Antiproliferative activity against human MCF7 cells assessed as reduction in cell viability measured after 48 hrs by MTT assay. The class given is functional, cell-based. To be noted: MCF7, 48 h.
A further series relates to MCF-10A. Kind of series: Antiproliferative activity against human MCF-10A cells assessed as reduction in cell proliferation incubated for 48 hrs by MTT assay. Format: functional, cell-based.
For series [3], the system named is MCF7. Kind of series: Antiproliferative activity against Doxorubicin-resistant human MCF7 cells assessed as reduction in cell proliferation incubated for 48 hrs by MTT assay. The class given is functional, cell-based. The note with it: MCF7, 48 h.
In series [4] the test system is MCF7. Kind of series: Antiproliferative activity against human MCF7 cells assessed as reduction in cell proliferation incubated for 48 hrs by MTT assay. Format: functional, cell-based. The note with it: MCF7, 48 h.
A short description of series [5]: Selectivity index, ratio of IC50 for antiproliferative activity against human MCF-10A cells to IC50 for antiproliferative activity against human MCF7 cells by MTT assay. The class given is toxicity, cell-based. To be noted: MCF-10A cells versus MCF7 cells, read-out: Selectivity Index.
Series [6] relates to MDA-MB-231. Kind of series: Antiproliferative activity against human MDA-MB-231 cells assessed as reduction in cell proliferation incubated for 48 hrs by MTT assay. The class given is functional, cell-based. To be noted: MDA-MB-231, 48 h.
The subject of series [7] is MCF7. Kind of series: Antiproliferative activity against human MCF7 cells assessed as inhibition of cell proliferation incubated for 24 hrs by MTT assay. The class given is functional, cell-based. The note with it: MCF7, 24 h.
Series [8] relates to MDA-MB-231. Nature of the series: Antiproliferative activity against human MDA-MB-231 cells assessed as inhibition of cell growth incubated for 72 hrs by Celltiter Glo assay. The class given is functional, cell-based. The note with it: MDA-MB-231, 72 h. For orientation: ATP-based viability assays read luminescence as a measure of living cells.
In series [9] the target is T1, Prostaglandin G/H synthase 2 (Homo sapiens) (UniProt P35354).
T1 sequence (whole entry): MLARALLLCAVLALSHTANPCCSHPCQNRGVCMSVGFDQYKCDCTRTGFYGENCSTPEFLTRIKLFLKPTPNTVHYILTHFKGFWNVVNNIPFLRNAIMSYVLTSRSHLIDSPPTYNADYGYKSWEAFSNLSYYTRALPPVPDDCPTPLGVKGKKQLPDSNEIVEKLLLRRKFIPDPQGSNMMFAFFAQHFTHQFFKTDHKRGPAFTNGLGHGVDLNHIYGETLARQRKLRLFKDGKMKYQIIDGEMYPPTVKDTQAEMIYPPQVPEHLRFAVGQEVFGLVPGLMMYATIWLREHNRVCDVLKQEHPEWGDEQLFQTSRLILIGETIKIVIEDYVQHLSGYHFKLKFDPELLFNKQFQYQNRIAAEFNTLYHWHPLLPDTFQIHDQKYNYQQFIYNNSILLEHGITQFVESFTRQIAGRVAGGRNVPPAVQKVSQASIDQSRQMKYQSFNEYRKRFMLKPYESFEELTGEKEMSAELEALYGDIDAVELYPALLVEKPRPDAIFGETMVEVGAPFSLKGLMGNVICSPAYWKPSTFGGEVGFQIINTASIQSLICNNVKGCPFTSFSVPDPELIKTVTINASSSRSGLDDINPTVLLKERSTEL
Nature of the series: Inhibition of COX-2 (unknown origin) at 50 uM by fluorescence based method relative to control.

In series [10] the test system is MCF7. Nature of the series: Antiproliferative activity against human MCF7 cells assessed as reduction in cell viability. Format: functional, cell-based.
Series [11] has as its system MDA-MB-231. Kind of series: Antiproliferative activity against human MDA-MB-231 cells assessed as reduction in cell viability measured after 24 hrs by MTT assay. Format: functional, cell-based. To be noted: MDA-MB-231, 24 h.
The subject of series [12] is HEK293. Kind of series: Antiproliferative activity against human HEK293 cells assessed as inhibition of cell growth measured after 24 hrs by MTT assay. The class given is functional, cell-based. To be noted: HEK293, 24 h.
In series [13] the test system is HEK293. Nature of the series: Antiproliferative activity against human HEK293 cells assessed as inhibition of cell proliferation measured after 24 hrs by MTT assay. Format: functional, cell-based. To be noted: HEK293, 24 h.
Series [14] relates to MCF7. Kind of series: Antiproliferative activity against human MCF7 cells assessed as reduction in cell viability measured after 24 hrs by MTT assay. The class given is functional, cell-based. To be noted: MCF7, 24 h.
Series [15] concerns MCF7. Kind of series: Antiproliferative activity against human MCF7 cells assessed as cell growth inhibition measured after 24 hrs by MTT assay. Format: functional, cell-based. The note with it: MCF7, 24 h.
Series [16] concerns MDA-MB-231. Kind of series: Antiproliferative activity against human MDA-MB-231 cells assessed as inhibition of cell growth by MTT assay. The class given is functional, cell-based.
Series [17] has as its system MDA-MB-231. Nature of the series: Antiproliferative activity against human MDA-MB-231 cells assessed as inhibition of cell proliferation incubated for 24 hrs by MTT assay. The note with it: MDA-MB-231, 24 h. Format: functional, cell-based.

The structures appear in SMILES notation.

From ChEMBL document CHEMBL5252593, “Therapeutic significance of molecular hybrids for breast cancer research and treatment” (RSC Med Chem, 2023) come the findings set out here.

For orientation: EC50 means the midpoint of the concentration-response curve. Consider `C[C@H]1[C@@H](CC(=O)OC[C@H]2C[C@H]3[C@@H]4CCc5cc(OCc6ccccc6)ccc5[C@H]4CC[C@]3(C)[C@H]2O)OC2O[C@]3(C)CC[C@H]4[C@H](C)CC[C@@H]1[C@@]24OO3` (stereo partly drawn), for which the EC50 is 0.86 µM in the series on MDA-MB-231 [1]; 0.15 µM in the series on C-33-A; 0.93 µM in the series with T47D; 0.18 µM with MDA-MB-361; 0.45 µM with MCF7 [2].
One may read the IC50 as the concentration that gives 50% inhibition. For the compound `CCO/N=C1/C(=O)N(CCCOC2O[C@@H]3O[C@@]4(C)CC[C@H]5[C@H](C)CC[C@@H]([C@H]2C)[C@@]35OO4)c2ccc(F)cc21` (stereo partly drawn), the IC50 was > 100 µM in the series with MCF-10A, 21.7 µM in the series with MCF7 [3], 20.7 µM in the series with MCF7 [4] and 23.9 µM in the series on MDA-MB-231 [6]. Moreover, the selectivity ratio in [5] is > 1.3.
In the case of `COc1ccc2c3c([nH]c2c1)[C@]12CC(C)(C)[C@@]4(C(=O)N1CC3)c1[nH]c3cc(OC)ccc3c1CCN24`, the half-maximal inhibitory concentration (IC50) in the series on MCF7 [7] came out at 38.5 µM.
As usually defined, the inhibition is the drop in the measured response relative to a control, in per cent. Regarding `OC[C@H]1O[C@@H](Cc2cc(-c3c[nH]c4ccccc34)on2)[C@H](O)[C@@H](O)[C@@H]1O`, the IC50 in the series on MDA-MB-231 [8] worked out at 35.5 µM. The compound also registered an inhibition in series [9] of 95%.
Take `CCOC(=O)[C@H]1Cc2c([nH]c3ccccc23)CN1Cc1cn(CCCOc2ccc(C(=O)/C=C/c3ccc(F)cc3)cc2)nn1`: the IC50 in the series with MCF7 [10] turned out to be 10.3 µM.
As for `CCOC(=O)[C@H]1Cc2c([nH]c3ccccc23)CN1Cc1cn(CCCCCOc2ccc(C(=O)/C=C/c3cc(OC)c(OC)c(OC)c3)cc2)nn1`, the IC50 with MDA-MB-231 [8] was 22.3 µM; with MDA-MB-231 [11], 22 µM.
For `Cc1ncc([N+](=O)[O-])n1Cc1cn(CCCCN2C(=O)C(=O)c3cc(Cl)ccc32)nn1`, the IC50 in the series on HEK293 [12] came to 12.1 µM.
Consider `COc1cccc(OC)c1C1CC(c2ccc(OCc3cn(CCCN4C(=O)c5cccc6cccc(c56)C4=O)nn3)cc2)=NN1C(C)=O` (stereo not drawn), for which the figures for the IC50 with HEK293 [13], in the series on MCF7 [14] and with MCF7 [15] were > 100 µM, 62.2 µM and 62.2 µM, respectively.
In the case of `O=C1C(=O)N(CCn2cc(COCCOc3ccc(/C(=C(/CCCl)c4ccccc4)c4ccccc4)cc3)nn2)c2c(Br)cc(Br)cc21`, in the series with MDA-MB-231 [16], the IC50 worked out at 48.5 µM.
Regarding `CCOC(=O)[C@H]1Cc2c([nH]c3ccccc23)CN1Cc1cn(CCCN2C(=O)C(=O)c3ccccc32)nn1`, the IC50 is > 100 µM in the series with MDA-MB-231 [17] and 37.4 µM with MCF7 [7].
